The values that follow come from paper PMC11125126, “Synthesis, Characterisation, and In Vitro Evaluation of Biocompatibility, Antibacterial and Antitumor Activity of Imidazolium Ionic Liquids” (Pharmaceutics, 2024).

Data set [1] in a line: Thermogravimetric analysis (TGA), thermal stability. The class given is physicochemical. The following applies: neat ILs; single-step degradation; 10 °C/min, nitrogen. The method, then: Thermal stability and kinetic parameters of the synthesised ILs were investigated using the TA instruments Q500 thermogravimetric analyser (Milan, Italy). A certain amount of sample (4–5 mg) was placed in a platinum pan and heated at 10 °C min^−1 from 40 to 600 °C under a flow of nitrogen (60 mL/min).
Thermogravimetric analyses were performed to evaluate the thermal stability of ILs and PVC/IL blends. Before testing, the samples were subjected to drying cycles in a vacuum stove for 24 h at 50–60 °C, according to the thermal features of ILs, mainly considering their melting points. The ILs C9mimBF4, C10mimBF4, C9mimDMSIP, and C10mimDMSIP, which are liquid at RT, were left to dry at 30 °C for 4–5 h. […] Considering this, the 40–600 °C degradation temperature range was adopted for the subsequent TGA analyses. […] Furthermore, platinum pans and nitrogen as purge gas were used, and the temperature at which 5% weight loss occurred was defined as Tonset, aiming to avoid the decomposition differences due to pan and gas types, as well as the uncertainty from the manual determination of the Tonset tangent point, respectively. Many features can influence the thermal stability of ILs, mainly the coordinating nature of the anion. Indeed, the highly coordinating halide anions (Cl, Br) display a thermal stability lower than that of poor coordinating anions (PF6). The type of cation core influences the thermal stability of ILs, with a decreasing temperature resistance in the following order: pyrrolidinium, imidazolium, pyridinium, and non-cyclic tetra-alkyl ammonium. The increasing alkyl chain length of the imidazolium cation and branching of the alkyl substituents induce a reduction in thermal stability. Furthermore, a decrease in thermal stability is determined by the presence of alkoxylated side chains in methylimidazolium, piperidinium, and pyrrolidinium cations.
As the industrial production of end products usually involves processing methodologies during which undesirable degradation processes could affect materials’ performance, the thermal stability of neat PVC and PVC/IL film blends was analysed. As detailed for TGA analyses of pure ILs, the stability of the PVC/IL blends was determined at heating runs of 10 °C/min from 40 to 600 °C under a nitrogen atmosphere using a platinum pan. These things considered, the temperature at 5% weight loss was considered as Tonset.

A further data set deals with MCF7 cancer cells. The data set can be described thus: Direct cytotoxicity test of IL powders, Alamar blue assay. The following applies: 24 h of incubation. The format is cell-based, human. The procedure: (§1) Cytotoxicity studies on IL powders were carried out using human dermal fibroblast (HDF) cells (Sigma-Aldrich) and a human breast cancer cell line (MCF7). In addition, ILs loaded in PVC polymer substrates were tested for their cytocompatibility and adhesion properties on the HDF. HDF cells were cultured in 75 cm^2 cell culture flask in Dulbecco’s Modified Eagle’s Medium (DMEM) supplemented with 20% Foetal Bovine Serum (FBS), 1% non-essential amino acid (NEAA), antibiotic solution (streptomycin 100 µg/mL and penicillin 100 U/mL, Sigma Aldrich) and 2 mM L-glutamine. MCF7 cells were grown in DMEM with 10% FBS and the same antibiotics as mentioned above. The cells were maintained in a culture at 37 °C, with 5% CO2 and 95% humidity to achieve a confluent layer. Control cells were cultured in a complete medium without any compounds in tissue culture plates. Before biological testing, the samples were sterilised using a UV light for 2 h.
(§2) A direct cytotoxicity test was used to assess the in vitro cytotoxicity of IL powders. IL powders with different alkyl chains were dissolved in DMEM media to obtain solutions at various concentrations (0.5–1–5 and 10 µg/mL) to determine the best formulation.
(§3) After 24 h of incubation of IL solutions (200 µL) with seeded cells under specific environmental conditions (T = 37 °C, HR = 95%, CO2 = 5%), cell viability was tested using the Alamar blue assay (AbD Serotec, Milan, Italy) following the manufacturer’s instructions.
(§4) In summary, each well received a 200 µL aliquot of Alamar Blue^TM diluted 1:10 in phenol red-free medium and was incubated for 4 h at 37 °C, 5% CO2. Following this, 100 µL of the solution was transferred to a 96-well plate for colorimetric analysis. Wells with no cells were included to account for any background interference from the redox indicator. Optical density was immediately measured using a spectrophotometer (Victor X3, Perkin Elmer, Waltham, MA, USA) at 560 and 595 nm wavelengths. The results were presented as a percentage of cell viability compared to that of the control (cells grown on tissue culture plates).
(§5) Here, the antitumor activity and cytotoxicity of the synthetised imidazolium-based ionic liquids have been determined for breast cancer cells (MCF-7) and healthy human fibroblast (HDF) cells. […] Table 5 reports the IC50 values in µg/mL and µM to make their comparison with the literature data easy.
A general note: The colour change of resazurin is a common sign of viable cells or microbes.

For the next data set, the system named is HDF cells. The description is as above. The class given is cell-based, human. The following applies: 24 h of incubation. The method, then: as §1, §2, §3, §4, §5
For another data set, the system named is Escherichia coli. Kind of data set: MIC/MBC by broth dilution, pure ILs. The format is cell-based. The following applies: 24 h; for MBC: read-out: MBC. The text has this:
(§6) Within the Di3A (Dipartimento di Agricoltura, Alimentazione e Ambiente, University of Catania, Italy) microbial collection, two Gram-negative strains (Escherichia coli and Pseudomonas fluorescens) and one Gram-positive strain (Listeria monocytogenes) were studied in order to define the potential efficacy of ionic liquids in relation to the different structure of the bacterial cell wall.
(§7) For the pure ILs, the minimal inhibitory concentration (MIC) and minimal bactericidal concentration (MBC) were determined in Nutrient Broth (NB, Oxoid, Basingstoke, UK) medium by broth dilution method, according to the Clinical and Laboratory Standards Institute (CLSI).
(§8) All the bacterial strains were individually grown for 24 h at 35 or 27 °C for P. fluorescens, with shaking. After the incubation period, the cells were collected by centrifugation and re-suspended in sterile NB to obtain a stock culture of 10^9 CFU/mL.
(§9) Tubes containing 5 mL of NB with decreasing concentrations of ILs (1000, 500, 250, 125, 50, 25, 12.5, 5 and 0 µg/mL) were inoculated with each bacterial stock culture at a final concentration of 10^6 CFU/mL.
(§10) Tubes were incubated at 35 or 27 °C in an orbital shaker and evaluated for the viable count of E. coli, P. fluorescens, and L. monocytogenes after 24 h by spread-plating 100 µL of each suspension on Nutrient Agar (NA, Oxoid, Basingstoke, UK) incubated for 24–48 h at 35 or 27 °C.
(§11) In this study, MIC and MBC are expressed in both µg/mL and µM to make the comparison with the literature data easy. Each experiment was performed in triplicate.
A general note: In broth dilution the organism is exposed to a series of concentrations in liquid medium.

The test system of another data set is Listeria monocytogenes. Kind of data set: MIC/MBC by broth dilution, pure ILs. The format is cell-based. The following applies: 24 h; for MBC: read-out: MBC.
Description: as §6, §7, §8, §9, §10, §11

In another data set the test system is Pseudomonas fluorescens. The data set can be described thus: MIC/MBC by broth dilution, pure ILs. The format is cell-based. The following applies: 24 h, NI = no inhibition at IL maximum concentration used (1000 µM), read-out: MIC.
Description: as §6, §7
All the bacterial strains were individually grown for 24 h at 35 or 27 °C for P. fluorescens, with shaking. After the incubation period, the cells were collected by centrifugation and re-suspended in sterile NB to obtain a stock culture of 10^9 CFU/mL. […]
as §10, §11

[2] abbreviates: NI = no inhibition at IL maximum concentration used (1000 µM), read-out: MIC.
[3] abbreviates: NI = no inhibition at IL maximum concentration used (1000 µM).

Where two headings read alike, the source gives them in different places. Bounds are passed on as bounds.

For orientation: IC50 means the point on the concentration scale where inhibition reaches its midpoint. One may read the MIC as the lowest concentration that inhibits growth of the organism. For `CCCCCCCCCCCCCCCCCCCCn1cc[n+](C)c1.COC(=O)c1cc(C(=O)OC)cc(S(=O)(=O)[O-])c1` [C20mimDMSIP, 1-eicosyl-3-methylimidazolium 1,3-dimethyl-5-sulfoisophthalate], in data set [1], the “Td, maximum degradation temperature” value amounted to 412.2 °C. Further, in the data set with MCF7 cancer cells (n = 3), the “IC50 MCF7” value was determined as 4.71 µg/mL. For the same compound, the IC50 was 7.39 µM in the data set with MCF7 cancer cells (n = 3, mean ± SD) and 8.01 µM in the data set on HDF cells (n = 3). The “IC50 HDF” value in the data set on HDF cells (n = 3, mean ± SD) came out at 5.10 ± 0.02 µg/mL. The MIC against Escherichia coli (10^6 CFU/mL) and with Listeria monocytogenes (10^6 CFU/mL) was over 636.88 µg/mL in each case.

Consider `CCCCCCCCCCCCCCCCCCCC[n+]1ccn(C)c1.F[B-](F)(F)F` [C20mimBF4], for which the “Td, maximum degradation temperature” value in data set [1] was 427.9 °C. Besides, the MIC was over 1000 µM with Pseudomonas fluorescens; over 450 µg/mL in the data set with Escherichia coli (10^6 CFU/mL, read-out: MIC); over 1000 µM in the data set on Escherichia coli (setting [2]); over 450 µg/mL with Listeria monocytogenes (10^6 CFU/mL, read-out: MIC); over 1000 µM in the data set with Listeria monocytogenes (setting [2]). The IC50 in the data set on MCF7 cancer cells (Homo sapiens, n = 3) was 3.47 µg/mL; in the data set on MCF7 cancer cells (Homo sapiens, n = 3, mean ± SD), 7.71 µM; in the data set on HDF cells (Homo sapiens, n = 3), 5.99 µM; with HDF cells (Homo sapiens, n = 3, mean ± SD), 2.7 ± 0.19 µg/mL.

With `CCCCCCCCC[n+]1ccn(C)c1.COC(=O)c1cc(C(=O)OC)cc(S(=O)(=O)[O-])c1` [C9mimDMSIP], the “Td, maximum degradation temperature” value in data set [1] was determined as 389.7 °C. For the same compound, the “IC50 MCF7” value with MCF7 cancer cells (n = 3) was over 24.13 µg/mL. The IC50 is over 50 µM with MCF7 cancer cells (n = 3, mean ± SD) and 10.3 µM with HDF cells (n = 3). Besides, in the data set on HDF cells (n = 3, mean ± SD), the “IC50 HDF” value is listed as 4.96 ± 0.05 µg/mL. Also, the MIC worked out at 482.59 µg/mL against Escherichia coli (10^6 CFU/mL) and 1000 µM in the data set on Escherichia coli (setting [2]).

As a reminder, the MBC is the smallest concentration meeting the test's criterion for killing. In the case of `CCCCCCCCCCCCCCCCCC[n+]1ccn(C)c1.F[B-](F)(F)F` [C18mimBF4], the minimal inhibitory concentration (MIC) with Pseudomonas fluorescens is over 1000 µM; in the data set with Escherichia coli (10^6 CFU/mL, read-out: MIC) it was 52.8 µg/mL; in the data set with Escherichia coli (setting [2]), 125 µM; in the data set with Listeria monocytogenes (10^6 CFU/mL, read-out: MIC) it was 211 µg/mL; in the data set with Listeria monocytogenes (setting [2]), 500 µM. For the same compound, the half-inhibitory concentration (IC50) in the data set with MCF7 cancer cells (Homo sapiens, n = 3) is 1.95 µg/mL; in the data set with MCF7 cancer cells (Homo sapiens, n = 3, mean ± SD) it was 4.61 µM; with HDF cells (Homo sapiens, n = 3), 10.8 µM; in the data set with HDF cells (Homo sapiens, n = 3, mean ± SD) it was 4.57 ± 0.06 µg/mL. Also, the minimal bactericidal concentration (MBC) in the data set on Escherichia coli (10^6 CFU/mL) came to 106 µg/mL; in the data set on Escherichia coli (setting [3]), 250 µM; in the data set with Listeria monocytogenes (10^6 CFU/mL) it was 422 µg/mL; in the data set on Listeria monocytogenes (setting [3]), 1000 µM.
